The target of data set [1] is MDR-1 (P-glycoprotein, ABCB1) (Homo sapiens, UniProt P08183). The data set can be described thus: (§1) Inhibition of MDR-1 in human Caco-2 cells at 10 uM after 30 mins by calcein-AM dye based fluorescence assay relative to cyclosporin. The note with it: Caco-2 cells, probe calcein-AM. It is filed as cell-based.
Data set [2] concerns the target T1, ATP-dependent translocase ABCB1 (Homo sapiens, UniProt P08183). Description: Inhibition of MDR-1 in human Caco-2 cells after 30 mins by calcein-AM dye based fluorescence assay. It counts as cell-based.
For data set [3], the target named is Metabotropic glutamate receptor 5 (Rattus norvegicus) (UniProt P31424). The data set can be described thus: Displacement of [3H]MPEP from rat brain mGluR5 expressed in CHO cells by scintillation counting method. It counts as cell-based. (In a radioligand displacement assay an active substance lowers the binding of a labelled ligand.)
Metabotropic glutamate receptor 5 (Rattus norvegicus), sequence (P31424 21-1203 limits assumed): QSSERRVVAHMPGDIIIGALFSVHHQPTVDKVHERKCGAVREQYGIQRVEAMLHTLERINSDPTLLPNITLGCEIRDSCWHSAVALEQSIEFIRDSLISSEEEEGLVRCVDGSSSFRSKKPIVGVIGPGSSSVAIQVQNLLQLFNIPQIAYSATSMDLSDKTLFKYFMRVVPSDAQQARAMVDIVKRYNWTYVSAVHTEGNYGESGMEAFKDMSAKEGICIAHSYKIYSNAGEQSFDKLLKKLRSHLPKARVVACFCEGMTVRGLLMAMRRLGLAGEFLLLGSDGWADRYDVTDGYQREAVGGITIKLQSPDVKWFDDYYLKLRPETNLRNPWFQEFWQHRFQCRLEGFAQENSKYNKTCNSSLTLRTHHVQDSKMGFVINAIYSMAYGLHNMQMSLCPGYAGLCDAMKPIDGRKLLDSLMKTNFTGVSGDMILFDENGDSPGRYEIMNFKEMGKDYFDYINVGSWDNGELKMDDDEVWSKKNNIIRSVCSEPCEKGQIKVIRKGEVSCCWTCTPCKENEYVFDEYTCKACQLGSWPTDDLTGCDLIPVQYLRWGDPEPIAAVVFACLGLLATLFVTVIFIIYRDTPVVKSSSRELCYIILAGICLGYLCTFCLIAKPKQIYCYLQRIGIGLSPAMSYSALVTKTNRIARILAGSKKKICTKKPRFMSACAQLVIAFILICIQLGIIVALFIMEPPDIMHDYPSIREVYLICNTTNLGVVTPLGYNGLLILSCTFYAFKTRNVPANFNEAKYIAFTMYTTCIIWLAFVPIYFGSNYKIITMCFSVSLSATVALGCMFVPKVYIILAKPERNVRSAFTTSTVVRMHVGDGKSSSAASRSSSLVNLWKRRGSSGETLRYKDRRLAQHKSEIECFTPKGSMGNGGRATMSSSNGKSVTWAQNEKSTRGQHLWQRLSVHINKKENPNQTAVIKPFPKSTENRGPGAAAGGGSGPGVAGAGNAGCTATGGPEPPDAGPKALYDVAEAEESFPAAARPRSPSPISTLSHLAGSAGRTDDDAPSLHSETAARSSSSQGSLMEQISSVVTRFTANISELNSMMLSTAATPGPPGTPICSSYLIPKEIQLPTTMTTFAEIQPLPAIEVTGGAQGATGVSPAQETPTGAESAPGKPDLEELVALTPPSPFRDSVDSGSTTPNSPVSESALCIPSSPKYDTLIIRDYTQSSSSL
The target of data set [4] is Voltage-gated L-type calcium channel (Homo sapiens, UniProt Q13936+Q13698+Q01668+O60840). The data set can be described thus: Displacement of [3H]PN-200110 from voltage-dependent L-type calcium channel (unknown origin) by scintillation counting method.
The target in data set [5] is T1, ATP-dependent translocase ABCB1. The description is as §1. It counts as cell-based. To be noted: 0.5 h, 10 µM.

Structures are written as SMILES.

The term inhibition denotes the drop in the measured response relative to a control, in per cent. Broadly, the IC50 is the concentration at which inhibition is half-maximal. Usually Ki stands for the dissociation constant of the complex between target and ligand, obtained from inhibition or displacement. What is called pIC50 is the negative decadic logarithm of the IC50, by convention in mol/L.

T1 sequence (P08183 whole entry): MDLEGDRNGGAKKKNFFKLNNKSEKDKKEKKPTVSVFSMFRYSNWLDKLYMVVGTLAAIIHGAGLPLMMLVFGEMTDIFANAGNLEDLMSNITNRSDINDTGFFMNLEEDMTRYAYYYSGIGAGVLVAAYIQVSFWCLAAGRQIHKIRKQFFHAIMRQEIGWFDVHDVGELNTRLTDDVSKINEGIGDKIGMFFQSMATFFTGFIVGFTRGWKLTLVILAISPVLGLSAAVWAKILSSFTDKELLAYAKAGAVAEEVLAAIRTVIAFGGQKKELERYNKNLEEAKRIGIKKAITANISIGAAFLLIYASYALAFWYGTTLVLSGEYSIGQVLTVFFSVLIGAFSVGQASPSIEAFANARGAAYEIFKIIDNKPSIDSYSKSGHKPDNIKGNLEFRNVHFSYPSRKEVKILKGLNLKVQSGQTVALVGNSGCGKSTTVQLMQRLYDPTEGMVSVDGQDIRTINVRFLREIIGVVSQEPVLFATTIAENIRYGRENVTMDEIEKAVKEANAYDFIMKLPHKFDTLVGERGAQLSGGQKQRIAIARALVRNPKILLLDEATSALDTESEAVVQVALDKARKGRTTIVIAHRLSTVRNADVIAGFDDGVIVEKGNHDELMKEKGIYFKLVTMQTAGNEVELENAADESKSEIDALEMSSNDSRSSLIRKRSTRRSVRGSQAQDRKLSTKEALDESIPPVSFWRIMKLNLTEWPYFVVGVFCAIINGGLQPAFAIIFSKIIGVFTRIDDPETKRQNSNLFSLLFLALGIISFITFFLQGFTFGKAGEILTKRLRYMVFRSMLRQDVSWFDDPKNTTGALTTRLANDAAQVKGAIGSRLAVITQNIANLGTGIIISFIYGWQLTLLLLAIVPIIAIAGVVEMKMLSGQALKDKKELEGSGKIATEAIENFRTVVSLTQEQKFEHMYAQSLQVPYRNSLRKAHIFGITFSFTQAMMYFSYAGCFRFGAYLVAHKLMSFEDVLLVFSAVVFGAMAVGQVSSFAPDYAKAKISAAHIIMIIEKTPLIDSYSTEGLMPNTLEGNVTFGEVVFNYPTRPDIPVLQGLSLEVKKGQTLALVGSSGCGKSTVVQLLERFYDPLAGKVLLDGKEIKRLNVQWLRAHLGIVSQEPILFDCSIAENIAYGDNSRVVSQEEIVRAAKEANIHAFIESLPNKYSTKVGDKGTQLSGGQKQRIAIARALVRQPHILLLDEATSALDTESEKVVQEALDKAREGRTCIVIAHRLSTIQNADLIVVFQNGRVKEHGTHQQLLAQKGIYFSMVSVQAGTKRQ
MDR-1 (P-glycoprotein, ABCB1), sequence (P08183 whole entry): as above

In the case of `CCOC(=O)C1=C(C)NC(C)=C(C(=O)OCC)C1c1c(-c2ccccc2Br)noc1C`, the inhibition at 0.5 h, 10 µM in data set [1] is -12%. The figures for the IC50 in data set [2] and in data set [4] were over 10 µM and 0.909 µM, respectively. The molecule further came in with a Ki in data set [3] of 1.52 µM.

For `CCOC(=O)C1=C(C)NC(C)=C(C(=O)OCc2cn(CCOCCOCCOCCn3cc(COC(=O)C4=C(C)NC(C)=C(C(=O)OCC)C4c4c(-c5ccc(Br)cc5)noc4C)nn3)nn2)C1c1c(-c2ccc(Br)cc2)noc1C` (stereo not given), the inhibition at 0.5 h, 10 µM in data set [1] was 11.6%. Also, the results for the IC50 in data set [2] and in data set [4] were 3.23 µM and 0.516 µM, respectively. The molecule also showed an inhibition constant Ki in data set [3] of 0.546 µM.

Consider `CCOC(=O)C1=C(C)NC(C)=C(C(=O)OCc2cn(CCOCCOCCOCCOCCOCCn3cc(COC(=O)C4=C(C)NC(C)=C(C(=O)OCC)C4c4c(-c5ccc(Br)cc5)noc4C)nn3)nn2)C1c1c(-c2ccc(Br)cc2)noc1C` (stereo not given), for which the “inhibition (INH)” value in data set [5] was 172.6%. The IC50 in data set [2] was 1.39 µM; in data set [4] it was 2.706 µM. In data set [3], the affinity, expressed as Ki, was 0.193 µM.

With `CCOC(=O)C1=C(C)NC(C)=C(C(=O)OCc2cn(CCOCCOCCOCCOCCOCCn3cc(COC(=O)C4=C(C)NC(C)=C(C(=O)OCC)C4c4c(-c5ccccc5Br)noc4C)nn3)nn2)C1c1c(-c2ccccc2Br)noc1C` (stereo not given), the inhibition at 0.5 h, 10 µM in data set [1] was 17.7%. Also, the figures for the IC50 in data set [2] and in data set [4] were 2.86 µM and over 10 µM, respectively. In data set [3], this molecule returned a Ki of 4.86 µM.

Take `CCOC(=O)C1=C(C)NC(C)=C(C(=O)OCc2cn(CCc3ccccc3)nn2)C1c1c(-c2ccc(Br)cc2)noc1C` (stereo not given): in data set [1], the inhibition at 0.5 h, 10 µM is 108%. Also, the IC50 is 1.64 µM in data set [2] and 0.127 µM in data set [4]. In data set [3], this molecule gave a Ki of 1.97 µM.

In the case of `CCOC(=O)C1=C(C)NC(C)=C(C(=O)OCc2cn(CCOCCOCCn3cc(COC(=O)C4=C(C)NC(C)=C(C(=O)OCC)C4c4c(-c5ccc(Br)cc5)noc4C)nn3)nn2)C1c1c(-c2ccc(Br)cc2)noc1C` (stereo not given), the inhibition at 0.5 h, 10 µM in data set [1] was 41.9%. In addition, the IC50 in data set [2] was 1.45 µM; in data set [4], 0.603 µM. The molecule also gave a Ki in data set [3] of 0.933 µM.

Consider `CCOC(=O)C1=C(C)NC(C)=C(C(=O)OCc2cn(CCOCCOCCOCCOCCOCCn3cc(COC(=O)C4=C(C)NC(C)=C(C(=O)OCC)C4c4c(-c5ccccc5)noc4C)nn3)nn2)C1c1c(-c2ccccc2)noc1C` (stereo not given), for which, in data set [1], the inhibition at 0.5 h, 10 µM was 20.4%. For the same molecule, the half-inhibitory concentration (IC50) in data set [2] and in data set [4] was over 10 µM in each case. In data set [3], this molecule registered a Ki of over 10 µM.

Consider `CCOC(=O)C1=C(C)NC(C)=C(C(=O)OCc2cn(CCOCCOCCOCCOCCOCCn3cc(COC(=O)C4=C(C)NC(C)=C(C(=O)OCC)C4c4c(-c5cccc(Br)c5)noc4C)nn3)nn2)C1c1c(-c2cccc(Br)c2)noc1C` (stereo not given), for which, in data set [5], the “inhibition (INH)” value is reported as 150.8%. Besides, the figures for the IC50 in data set [2] and in data set [4] were 1.3 µM and 3.766 µM, respectively. For the same molecule, the Ki in data set [3] worked out at 8.64 µM.

For the molecule `CCOC(=O)c1c(C)nc(C)c(C(=O)OCC)c1-c1c(-c2ccccc2)noc1C`, in data set [1], the inhibition at 0.5 h, 10 µM is 36.9%. Moreover, the IC50 in data set [2] and in data set [4] was over 10 µM each time. Besides, the Ki in data set [3] was over 10 µM.

`CCOC(=O)C1=C(C)NC(C)=C(C(=O)OCC)C1c1c(-c2cccc(Br)c2)noc1C`: the inhibition at 0.5 h, 10 µM in data set [1] is 102%. The IC50 in data set [2] is 0.51 µM; in data set [4], 0.208 µM. In data set [3], the Ki was over 10 µM.

Take `CCOC(=O)C1=C(C)NC(C)=C(C(=O)OCC)C1c1c(-c2ccc(Br)cc2)noc1C`: the inhibition at 0.5 h, 10 µM in data set [1] was 58.4%. The IC50 in data set [2] was 3.1 µM. Moreover, in data set [3], the Ki is over 10 µM. In data set [4], the IC50 came to 0.036 µM and the pIC50 is listed as 7.44.

Source of the values: ChEMBL document CHEMBL4020731, “Dimeric isoxazolyl-1,4-dihydropyridines have enhanced binding at the multi-drug resistance transporter” (Bioorg Med Chem, 2017).
